US20060160174A1, “Modified l49-sfv exhibiting increased stability and methods of use thereof” (priority 2002, published 2006)

Test system: H3677 melanoma cells
Assay: in vitro cytotoxicity assay with prodrug C-Mel (alamarBlue)
Assay type: cell-based
Conditions: Homo sapiens
Procedure: H3677 cells were plated into 96 well microtiter plates (5×10^3 cells/well in 100 μl of RPMI 1640 media (Invitrogen) with 10% fetal bovine serum) and allowed to adhere overnight. The cells were treated with FP95, FP990 or FP999 fusion (see Table 2) proteins at 10 nM. […] Melphalan was also added at the same concentrations to cells treated with medium alone. After 1 hour at 37° C. cells were washed three times with medium and incubated for 96 hours at 37° C. The cells were then incubated with 10% alamarBlue™ for 3 hours at 37° C. and excitation was measured in an ELISA plate reader at 570 nm.
The cells were treated with 10 nM L49-sFv-bL, unbound material was washed off and serial dilutions of C-Mel were added. C-Mel and the active drug, melphalan, were also applied to cells treated with media alone. Cell viability was measured using the redox indicator alamarBlue™.

N[C@@H](Cc1ccc(N(CCCl)CCCl)cc1)C(=O)O [melphalan]
IC50: ~5 µM
